Measured values published in paper PMC3881575, “Biochemical and Bioinformatic Characterization of Type II Metacaspase Protein (TaeMCAII) from Wheat” (Plant Molecular Biology Reporter, 2012).
Each block holds one molecule with its values, some of them ahead of it.

Key:
Assay in all cases: colorimetric pNA release, […] nm
Assay type in all cases: biochemical
[1] = biological target: T1, TaeMCAII (Triticum aestivum, UniProt D1MBU0, DEL149-214); details: 50 μM Ac-VRPR-pNa, pH 7.0, 30 mM CaCl2, 10 mM DTT; 1 h preincubation at 30°C; irreversible, covalent
T1 construct: gene MCAII; full-length ORF (405 residues, 44 kDa) in pET-28a(+), N-terminal His6 tag, E. coli BL21(DE3)pLysS, Ni-NTA; autoprocessed after Lys148 and Arg214 (66-residue linker removed) into 16 kDa N-terminal and 20 kDa C-terminal subunits
T1 sequence (D1MBU0 1-148): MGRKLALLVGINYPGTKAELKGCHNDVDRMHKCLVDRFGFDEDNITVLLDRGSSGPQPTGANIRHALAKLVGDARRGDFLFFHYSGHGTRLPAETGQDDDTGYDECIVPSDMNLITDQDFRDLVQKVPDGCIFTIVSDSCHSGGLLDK
T1 sequence (D1MBU0 215-405): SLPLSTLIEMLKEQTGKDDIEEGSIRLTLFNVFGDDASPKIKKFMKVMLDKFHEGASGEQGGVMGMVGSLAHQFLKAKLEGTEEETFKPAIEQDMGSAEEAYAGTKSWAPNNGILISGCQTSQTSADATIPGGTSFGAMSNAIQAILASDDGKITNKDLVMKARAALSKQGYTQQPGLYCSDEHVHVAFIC

[2] = biological target: T1, TaeMCAII; details: 50 μM Ac-VRPR-pNa, pH 7.0, 30 mM CaCl2, 10 mM DTT; 1 h preincubation at 30°C; irreversible, covalent; remark: listed apart in the source
[3] = biological target: T1, TaeMCAII; details: 50 μM Ac-VRPR-pNa, pH 7.0, 30 mM CaCl2, 10 mM DTT; 1 h preincubation at 30°C; competitive

% activity retained at 100 μM [1]: 89%
SMILES: CC(C)C[C@H](NC(=O)[C@@H]1O[C@H]1C(=O)O)C(=O)NCCCCN=C(N)N [E-64, 1-trans-epoxysuccinylleucylamide-(4-guanido)-butane]

SMILES: Cc1ccc(S(=O)(=O)N[C@@H](CCCCN)C(=O)CCl)cc1 [TLCK, N^α-tosyl-L-lysine-chloromethyl ketone]
% decrease of activity at 100 μM [2]: 43%

% decrease of activity at 10 μM [3]: 88%
SMILES: CC(=O)N[C@@H](CC(C)C)C(=O)N[C@@H](CC(C)C)C(=O)N[C@H](C=O)CCCNC(=N)N [leupeptin]
